Read-outs that look alike come from different tables or passages of the source.
Experiments:
orexin-1 = orexin-1 (Homo sapiens (Human), UniProt O43613); assay: Intracellular calcium measurement (FLIPR), CHO cells expressing human orexin-1 receptor, 3 nM orexin-A; assay type: cell-based; conditions: read-out: IC50 OX1
Outline: (§1)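 CHO transfectants were dye-loaded (fluo-4 AM, probenecid) and exposed to antagonist for 120 min ahead of agonist.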

human orexin-2 receptor = human orexin-2 receptor (Homo sapiens (Human), UniProt O43614); assay: Intracellular calcium measurement (FLIPR), CHO cells expressing human orexin-2 receptor, 3 nM orexin-A; assay type: cell-based; conditions: read-out: IC50 OX2
Outline: as §1

[1] = CHO cells expressing human orexin-1 receptor, FLIPR, 3 nM orexin-A, geometric mean if determined several times
[2] = CHO cells expressing human orexin-2 receptor, FLIPR, 3 nM orexin-A, geometric mean if determined several times

orexin-1, sequence (O43613 whole entry): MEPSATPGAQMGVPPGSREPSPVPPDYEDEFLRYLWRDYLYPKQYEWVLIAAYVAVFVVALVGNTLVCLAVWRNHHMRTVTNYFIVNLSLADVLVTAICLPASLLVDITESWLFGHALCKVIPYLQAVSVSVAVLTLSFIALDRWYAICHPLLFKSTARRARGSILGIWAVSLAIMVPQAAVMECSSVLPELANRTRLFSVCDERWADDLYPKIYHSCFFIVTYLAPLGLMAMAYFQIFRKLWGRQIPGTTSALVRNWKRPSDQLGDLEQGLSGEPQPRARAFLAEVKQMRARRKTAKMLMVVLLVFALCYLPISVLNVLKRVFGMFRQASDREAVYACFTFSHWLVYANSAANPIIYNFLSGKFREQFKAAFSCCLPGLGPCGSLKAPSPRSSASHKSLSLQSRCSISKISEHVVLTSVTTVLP
human orexin-2 receptor, sequence (O43614 whole entry): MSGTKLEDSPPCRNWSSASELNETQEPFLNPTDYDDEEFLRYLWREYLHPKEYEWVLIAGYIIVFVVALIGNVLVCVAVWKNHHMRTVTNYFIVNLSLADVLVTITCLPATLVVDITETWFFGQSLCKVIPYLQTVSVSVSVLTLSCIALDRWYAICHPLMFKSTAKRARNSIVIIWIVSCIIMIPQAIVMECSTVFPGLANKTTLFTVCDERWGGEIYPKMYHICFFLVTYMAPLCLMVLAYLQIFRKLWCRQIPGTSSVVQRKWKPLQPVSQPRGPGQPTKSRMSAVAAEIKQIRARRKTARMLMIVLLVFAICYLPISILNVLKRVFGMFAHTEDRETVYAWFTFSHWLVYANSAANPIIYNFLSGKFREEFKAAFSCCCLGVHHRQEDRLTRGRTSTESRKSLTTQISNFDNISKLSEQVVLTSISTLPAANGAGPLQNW

SMILES	IC50 (orexin-1; [1]) [nM]	IC50 (human orexin-2 receptor; [2]) [nM]	IC50 (human orexin-2 receptor) [nM]	IC50 (orexin-1) [nM]
COc1c(F)cccc1-c1nc([C@@H]2CCCN2C(=O)c2ccccc2-n2nccn2)no1 [compound 334, {(S)-2-[5-(3-Fluoro-2-methoxy-phenyl)-[1,2,4]oxadiazol-3-yl]-pyrrolidin-1-yl}-(2-[1,2,3]triazol-2-yl-phenyl)-methanone]	320	12		
Cc1ccc(-n2nccn2)c(C(=O)N2CCC[C@H]2c2noc(-c3cccc(F)c3C)n2)c1 [compound 335, {(S)-2-[5-(3-Fluoro-2-methyl-phenyl)-[1,2,4]oxadiazol-3-yl]-pyrrolidin-1-yl}-(5-methyl-2-[1,2,3]triazol-2-yl-phenyl)-methanone]	65	4		
COc1c(F)cccc1-c1nc([C@@H]2CCCN2C(=O)c2cc(C)ccc2-n2nccn2)no1 [compound 336, {(S)-2-[5-(3-Fluoro-2-methoxy-phenyl)-[1,2,4]oxadiazol-3-yl]-pyrrolidin-1-yl}-(5-methyl-2-[1,2,3]triazol-2-yl-phenyl)-methanone]	45	3		
Cc1ccc(C(=O)N2CCC[C@H]2c2noc(-c3cccc(F)c3C)n2)c(-n2nccn2)c1 [compound 337, {(S)-2-[5-(3-Fluoro-2-methyl-phenyl)-[1,2,4]oxadiazol-3-yl]-pyrrolidin-1-yl}-(4-methyl-2-[1,2,3]triazol-2-yl-phenyl)-methanone]	112	14		
COc1c(F)cccc1-c1nc([C@@H]2CCCN2C(=O)c2ccc(C)cc2-n2nccn2)no1 [compound 338, {(S)-2-[5-(3-Fluoro-2-methoxy-phenyl)-[1,2,4]oxadiazol-3-yl]-pyrrolidin-1-yl}-(4-methyl-2-[1,2,3]triazol-2-yl-phenyl)-methanone]	27	4		
Cc1cc(C(=O)N2CCC[C@H]2c2noc(-c3cccc(F)c3C)n2)c(-n2nccn2)cc1C [compound 339, (4,5-Dimethyl-2-[1,2,3]triazol-2-yl-phenyl)-{(S)-2-[5-(3-fluoro-2-methyl-phenyl)-[1,2,4]oxadiazol-3-yl]-pyrrolidin-1-yl}-methanone]	15	2		
COc1cc(C(=O)N2CCC[C@H]2c2noc(-c3cccc(F)c3OC)n2)c(-n2nccn2)cc1C [compound 341, {(S)-2-[5-(3-Fluoro-2-methoxy-phenyl)-[1,2,4]oxadiazol-3-yl]-pyrrolidin-1-yl}-(5-methoxy-4-methyl-2-[1,2,3]triazol-2-yl-phenyl)-methanone]	13	1		
Cc1c(F)cccc1-c1nc([C@@H]2CCCN2C(=O)c2cc(Cl)ccc2-n2nccn2)no1 [compound 342]	152		13	
COc1c(F)cccc1-c1nc([C@@H]2CCCN2C(=O)c2cc(Cl)ccc2-n2nccn2)no1 [compound 343]	46	3		
CCOc1ncccc1-c1nc([C@@H]2CCCN2C(=O)c2ccc(C)cc2-n2nccn2)no1 [compound 345]	33	11		
CCOc1ncccc1-c1nc([C@@H]2CCCN2C(=O)c2cc(Cl)ccc2-n2nccn2)no1 [compound 346]	23	2		
COc1cc(C(=O)N2CCC[C@H]2c2noc(-c3cccc(Cl)c3OC)n2)c(-n2nccn2)cc1Cl [compound 347]	15	1		
COc1cc(C(=O)N2CCC[C@H]2c2noc(-c3cccc(Cl)c3OC)n2)c(-n2nccn2)cc1C [compound 348]	10	1		
COc1c(Cl)cccc1-c1nc([C@@H]2CCCN2C(=O)c2ccc(Cl)cc2-n2nccn2)no1 [compound 349]	27	3		
COc1cc(C(=O)N2CCC[C@H]2c2noc(-c3cc(C)ccc3OC)n2)c(-n2nccn2)cc1Cl [compound 350]	36	2		
COc1c(Cl)cccc1-c1nc([C@@H]2CCCN2C(=O)c2cc(C)ccc2-n2nccn2)no1 [compound 351]		4		22
COc1cc(C)cc(-c2nc([C@@H]3CCCN3C(=O)c3cc(OC)c(Cl)cc3-n3nccn3)no2)c1 [compound 352]	19		4	
COc1ccc(C)c(-c2nc([C@@H]3CCCN3C(=O)c3cc(OC)c(Cl)cc3-n3nccn3)no2)c1 [compound 353]	54	5		
COc1c(Cl)cccc1-c1nc([C@@H]2CCCN2C(=O)c2ccc(C)cc2-n2nccn2)no1 [compound 354]	12	5		
COc1cc(C(=O)N2CCC[C@H]2c2noc(-c3cccc(OC)c3C)n2)c(-n2nccn2)cc1Cl [compound 355]	188	8		
COc1cccc(-c2nc([C@@H]3CCCN3C(=O)c3cc(C)c(C)cc3-n3nccn3)no2)c1C [compound 356, (4,5-Dimethyl-2-[1,2,3]triazol-2-yl-phenyl)-{(S)-2-[5-(3-methoxy-2-methyl-phenyl)-[1,2,4]oxadiazol-3-yl]-pyrrolidin-1-yl}-methanone]	57	7		
COc1c(Cl)cccc1-c1nc([C@@H]2CCCN2C(=O)c2cc(Cl)ccc2-n2nccn2)no1 [compound 357]	81		17	

SMILES	IC50 (orexin-1; [1]) [nM]	IC50 (human orexin-2 receptor; [2]) [nM]	IC50 (human orexin-2 receptor) [nM]	IC50 (orexin-1) [nM]
COc1cc(C(=O)N2CCC[C@H]2c2noc(-c3cccc(OC)c3C)n2)c(-n2nccn2)cc1C [compound 358, {(S)-2-[5-(3-Methoxy-2-methyl-phenyl)-[1,2,4]oxadiazol-3-yl]-pyrrolidin-1-yl}-(5-methoxy-4-methyl-2-[1,2,3]triazol-2-yl-phenyl)-methanone]	128	10		
COc1cccc(-c2nc([C@@H]3CCCN3C(=O)c3cc(C)ccc3-n3nccn3)no2)c1C [compound 359, {(S)-2-[5-(3-Methoxy-2-methyl-phenyl)-[1,2,4]oxadiazol-3-yl]-pyrrolidin-1-yl}-(5-methyl-2-[1,2,3]triazol-2-yl-phenyl)-methanone]	325	30		
COc1c(Cl)cccc1-c1nc([C@@H]2CCCN2C(=O)c2cc(C)c(C)cc2-n2nccn2)no1 [compound 360]	7	1		
COc1cccc(-c2nc([C@@H]3CCCN3C(=O)c3cc(Cl)ccc3-n3nccn3)no2)c1C [compound 361]	127	61		
COc1cccc(-c2nc([C@@H]3CCCN3C(=O)c3ccc(Cl)cc3-n3nccn3)no2)c1C [compound 362]	171		100	
COc1c(F)cccc1-c1nc([C@@H]2CCCN2C(=O)c2cccc(Cl)c2-n2nccn2)no1 [compound 363]	155	111		
COc1cccc(-c2nc([C@@H]3CCCN3C(=O)c3ccc(C)cc3-n3nccn3)no2)c1C [compound 364, {(S)-2-[5-(3-Methoxy-2-methyl-phenyl)-[1,2,4]oxadiazol-3-yl]-pyrrolidin-1-yl}-(4-methyl-2-[1,2,3]triazol-2-yl-phenyl)-methanone]	265	157		
Cc1cc(-n2nccn2)c(C(=O)N2CCC[C@H]2c2noc(-c3ccccc3OC(F)(F)F)n2)cc1Cl [compound 365]	13	6		
CCOc1c(F)cccc1-c1nc([C@@H]2CCCN2C(=O)c2cc(Cl)c(C)cc2-n2nccn2)no1 [compound 366]	5	3		
COc1cc(C(=O)N2CCC[C@H]2c2noc(-c3cccc(Cl)c3C)n2)c(-n2nccn2)cc1Cl [compound 367]	20	2		
COc1cc(C(=O)N2CCC[C@H]2c2noc(-c3cccc(F)c3OC)n2)c(-n2nccn2)cc1Cl [compound 368]	11	1		
CCOc1c(F)cccc1-c1nc([C@@H]2CCCN2C(=O)c2cc(OC)c(Cl)cc2-n2nccn2)no1 [compound 369]	15	2		
CCOc1ncccc1-c1nc([C@@H]2CCCN2C(=O)c2cc(OC)c(Cl)cc2-n2nccn2)no1 [compound 370]	9	1		
Cc1cc(-n2nccn2)c(C(=O)N2CCC[C@H]2c2noc(-c3cccc(Cl)c3C)n2)cc1Cl [compound 371]		7		18
COc1cc(C(=O)N2CCC[C@H]2c2noc(-c3cccc(F)c3C)n2)c(-n2nccn2)cc1F [compound 372, (4-Fluoro-5-methoxy-2-[1,2,3]triazol-2-yl-phenyl)-{(S)-2-[5-(3-fluoro-2-methyl-phenyl)-[1,2,4]oxadiazol-3-yl]-pyrrolidin-1-yl}-methanone]	377	29		
COc1cc(C(=O)N2CCC[C@H]2c2noc(-c3cccc(F)c3OC)n2)c(-n2nccn2)cc1F [compound 373, {(S)-2-[5-(3-Fluoro-2-methoxy-phenyl)-[1,2,4]oxadiazol-3-yl]-pyrrolidin-1-yl}-(4-fluoro-5-methoxy-2-[1,2,3]triazol-2-yl-phenyl)-methanone]	212	5		
Cc1ccc(C(=O)N2CCC[C@H]2c2noc(-c3ccccc3OC(F)(F)F)n2)c(-n2nccn2)c1 [compound 374, (4-Methyl-2-[1,2,3]triazol-2-yl-phenyl)-{(S)-2-[5-(2-trifluoromethoxy-phenyl)-[1,2,4]oxadiazol-3-yl]-pyrrolidin-1-yl}-methanone]	18	11		
COc1cc(C(=O)N2CCC[C@H]2c2noc(-c3ccccc3OC(F)(F)F)n2)c(-n2nccn2)cc1Cl [compound 375]	67	6		
O=C(c1ccc(Cl)cc1-n1nccn1)N1CCC[C@H]1c1noc(-c2ccccc2OC(F)(F)F)n1 [compound 376]		11		23
O=C(c1cc(Cl)ccc1-n1nccn1)N1CCC[C@H]1c1noc(-c2ccccc2OC(F)(F)F)n1 [compound 377]	68	15		
COc1c(F)cccc1-c1nc([C@@H]2CCCN2C(=O)c2ccc(Cl)cc2-n2nccn2)no1 [compound 378]	30		2	
